Results on 32 molecules are retold here after patent US9283222B2 (priority 2006, dated 2016).

In this assay the target is Recombinant Human Poly(ADP-Ribose) Polymerase (PARP), PARP-1 (Homo sapiens (Human), UniProt P09874). Conditions: read-out: PARP-1 (Ki); Table 1; text calls the values EC50s.
Sequence of Recombinant Human Poly(ADP-Ribose) Polymerase (PARP), PARP-1 (P09874 whole entry): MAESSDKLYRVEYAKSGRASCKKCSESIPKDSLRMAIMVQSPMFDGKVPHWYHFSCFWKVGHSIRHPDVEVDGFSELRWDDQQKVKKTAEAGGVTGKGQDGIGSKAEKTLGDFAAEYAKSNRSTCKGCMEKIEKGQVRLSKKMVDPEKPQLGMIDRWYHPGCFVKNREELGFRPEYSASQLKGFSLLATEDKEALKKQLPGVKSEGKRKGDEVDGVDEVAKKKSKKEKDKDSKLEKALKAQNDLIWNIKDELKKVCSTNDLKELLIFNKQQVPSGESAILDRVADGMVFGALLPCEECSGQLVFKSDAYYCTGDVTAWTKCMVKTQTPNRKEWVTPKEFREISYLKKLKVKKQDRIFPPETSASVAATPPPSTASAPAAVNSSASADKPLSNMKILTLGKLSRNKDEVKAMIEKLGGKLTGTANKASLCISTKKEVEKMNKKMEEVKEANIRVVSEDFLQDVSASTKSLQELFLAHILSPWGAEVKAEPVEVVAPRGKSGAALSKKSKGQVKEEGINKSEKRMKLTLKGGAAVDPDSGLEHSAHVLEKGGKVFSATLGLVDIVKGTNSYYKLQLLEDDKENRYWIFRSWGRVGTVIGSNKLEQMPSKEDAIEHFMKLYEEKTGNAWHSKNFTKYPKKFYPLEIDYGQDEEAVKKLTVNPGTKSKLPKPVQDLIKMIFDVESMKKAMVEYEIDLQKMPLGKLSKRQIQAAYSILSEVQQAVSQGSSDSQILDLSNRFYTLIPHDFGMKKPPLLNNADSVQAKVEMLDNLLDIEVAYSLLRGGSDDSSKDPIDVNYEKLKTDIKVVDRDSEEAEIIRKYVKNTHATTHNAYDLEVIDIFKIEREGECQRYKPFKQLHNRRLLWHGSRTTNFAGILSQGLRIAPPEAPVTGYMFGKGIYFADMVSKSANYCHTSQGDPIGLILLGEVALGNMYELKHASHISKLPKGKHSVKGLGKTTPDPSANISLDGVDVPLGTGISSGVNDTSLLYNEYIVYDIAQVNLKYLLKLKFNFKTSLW
As to `O=C(c1cc(Cc2n[nH]c(=O)c3c2NCCC3)ccc1F)N1CCN(c2ccccc2F)CC1` [Example 549, 8-(4-fluoro-3-{[4-(2-fluorophenyl)piperazin-1-yl]carbonyl}benzyl)-2,3,4,6-tetrahydropyrido[2,3-d]pyridazin-5(1H)-one], the Ki came out at 1 nM.

Take `O=C(c1ccco1)N1CCN(C(=O)c2cc(Cc3n[nH]c(=O)c4c3NCCC4)ccc2F)CC1` [Example 553, 8-(4-fluoro-3-{[4-(2-furoyl)piperazin-1-yl]carbonyl}benzyl)-2,3,4,6-tetrahydropyrido[2,3-d]pyridazin-5(1H)-one]: the Ki was 0.8 nM.

`O=C(c1cc(Cc2n[nH]c(=O)c3c2NCCC3)ccc1F)N1CCN(c2ccccc2Cl)CC1` [Example 554, 8-(3-{[4-(2-chlorophenyl)piperazin-1-yl]carbonyl}-4-fluorobenzyl)-2,3,4,6-tetrahydropyrido[2,3-d]pyridazin-5(1H)-one]: the Ki was 2.1 nM.

With `CCN(CC)C(=O)N1CCN(C(=O)c2cc(Cc3n[nH]c(=O)c4c3NCCC4)ccc2F)CC1` [Example 557, N,N-diethyl-4-{2-fluoro-5-[(5-oxo-1,2,3,4,5,6-hexahydropyrido[2,3-d]pyridazin-8-yl)methyl]benzoyl}piperazine-1-carboxamide], the Ki amounted to 1.1 nM.

As to `CN(C)C(=O)CN1CCN(C(=O)c2cc(Cc3n[nH]c(=O)c4c3NCCC4)ccc2F)CC1` [Example 560, 2-(4-{2-fluoro-5-[(5-oxo-1,2,3,4,5,6-hexahydropyrido[2,3-d]pyridazin-8-yl)methyl]benzoyl}piperazin-1-yl)-N,N-dimethylacetamide], the Ki is 2 nM.

Turning to `O=C(c1cc(Cc2n[nH]c(=O)c3c2NCCC3)ccc1F)N1CCN(CCOc2ccccc2)CC1` [Example 561, 8-(4-fluoro-3-{[4-(2-phenoxyethyl)piperazin-1-yl]carbonyl}benzyl)-2,3,4,6-tetrahydropyrido[2,3-d]pyridazin-5(1H)-one], the Ki came out at 3 nM.

On to `O=C(c1cc(Cc2n[nH]c(=O)c3c2NCCC3)ccc1F)N1CCN(S(=O)(=O)c2ccccc2)CC1` [Example 562, 8-(4-fluoro-3-{[4-(phenylsulfonyl)piperazin-1-yl]carbonyl}benzyl)-2,3,4,6-tetrahydropyrido[2,3-d]pyridazin-5(1H)-one], for which the Ki is 0.9 nM.

As for `CC(C)C(=O)N1CCN(C(=O)c2cc(Cc3n[nH]c(=O)c4c3NCCC4)ccc2F)CC1` [Example 565, 8-{4-fluoro-3-[(4-isobutyrylpiperazin-1-yl)carbonyl]benzyl}-2,3,4,6-tetrahydropyrido[2,3-d]pyridazin-5(1H)-one], the Ki was 1.4 nM.

With `O=C(c1cc(Cc2n[nH]c(=O)c3c2NCCC3)ccc1F)N1CCN(CCN2CCOCC2)CC1` [Example 566, 8-(4-fluoro-3-{[4-(2-morpholin-4-ylethyl)piperazin-1-yl]carbonyl}benzyl)-2,3,4,6-tetrahydropyrido[2,3-d]pyridazin-5(1H)-one], the Ki is 4 nM.

As to `O=C(c1cc(Cc2n[nH]c(=O)c3c2NCCC3)ccc1F)N1CCN(C(=O)C2CCCCC2)CC1` [Example 568, 8-(3-{[4-(cyclohexylcarbonyl)piperazin-1-yl]carbonyl}-4-fluorobenzyl)-2,3,4,6-tetrahydropyrido[2,3-d]pyridazin-5(1H)-one], the Ki amounted to 1.1 nM.

As for `O=C(c1cc(Cc2n[nH]c(=O)c3c2NCCC3)ccc1F)N1CCN(C(=O)C2CCCO2)CC1` (centres unmarked) [Example 569, 8-(4-fluoro-3-{[4-(tetrahydrofuran-2-ylcarbonyl)piperazin-1-yl]carbonyl}benzyl)-2,3,4,6-tetrahydropyrido[2,3-d]pyridazin-5(1H)-one], the Ki came out at 1.2 nM.

`O=C(c1cc(Cc2n[nH]c(=O)c3c2NCCC3)ccc1F)N1CCN(CCN2CCCCC2)CC1` [Example 570, 8-(4-fluoro-3-{[4-(2-piperidin-1-ylethyl)piperazin-1-yl]carbonyl}benzyl)-2,3,4,6-tetrahydropyrido[2,3-d]pyridazin-5(1H)-one]: the Ki was determined as 8 nM.

For the molecule `O=C(c1cc(Cc2n[nH]c(=O)c3c2CCCC3)ccc1F)N1CCN(CCN2CCOCC2)CC1` [Example 571, 4-(4-fluoro-3-{[4-(2-morpholin-4-ylethyl)piperazin-1-yl]carbonyl}benzyl)-5,6,7,8-tetrahydrophthalazin-1(2H)-one], the Ki is 4 nM.

Turning to `O=C(c1cc(Cc2n[nH]c(=O)c3c2NCCC3)ccc1F)N1CCC(O)CC1` [Example 572, 8-{4-fluoro-3-[(4-hydroxypiperidin-1-yl)carbonyl]benzyl}-2,3,4,6-tetrahydropyrido[2,3-d]pyridazin-5(1H)-one], the Ki turned out to be 3 nM.

Take `Cc1cncc(N2CCN(C(=O)c3cc(Cc4n[nH]c(=O)c5c4NCCC5)ccc3F)CC2)n1` [Example 573, 8-(4-fluoro-3-{[4-(6-methylpyrazin-2-yl)piperazin-1-yl]carbonyl}benzyl)-2,3,4,6-tetrahydropyrido[2,3-d]pyridazin-5(1H)-one]: the Ki came out at 0.9 nM.

As for `O=C(c1cc(Cc2n[nH]c(=O)c3c2CCCC3)ccc1F)N1CCN(S(=O)(=O)c2ccccc2)CC1` [Example 574, 4-(4-fluoro-3-{[4-(phenylsulfonyl)piperazin-1-yl]carbonyl}benzyl)-5,6,7,8-tetrahydrophthalazin-1(2H)-one], the Ki is 1.3 nM.

Turning to `O=C(c1cc(Cc2n[nH]c(=O)c3c2CCCC3)ccc1F)N1CCN(C2CCCC2)CC1` [Example 575, 4-{3-[(4-cyclopentylpiperazin-1-yl)carbonyl]-4-fluorobenzyl}-5,6,7,8-tetrahydrophthalazin-1(2H)-one], the Ki amounted to 2 nM.

As for `O=C(c1cc(Cc2n[nH]c(=O)c3c2CCCC3)ccc1F)N1CCN(C(=O)N2CCCC2)CC1` [Example 576, 4-(4-fluoro-3-{[4-(pyrrolidine-1-ylcarbonyl)piperazin-1-yl]carbonyl}benzyl)-5,6,7,8-tetrahydrophthalazin-1(2H)-one], the Ki stood at 0.9 nM.

As to `O=C(c1cc(Cc2n[nH]c(=O)c3c2CCCC3)ccc1F)N1CCN(CCOc2ccccc2)CC1` [Example 577, 4-(4-fluoro-3-{[4-(2-phenoxyethyl)piperazin-1-yl]carbonyl}benzyl)-5,6,7,8-tetrahydrophthalazin-1(2H)-one], the Ki worked out at 3 nM.

As to `CN1CCN(CCNC(=O)c2cc(Cc3n[nH]c(=O)c4c3CCCC4)ccc2F)CC1` [Example 578, 2-fluoro-N-[2-(4-methylpiperazin-1-yl)ethyl]-5-[(4-oxo-3,4,5,6,7,8-hexahydrophthalazin-1-yl)methyl]benzamide], the Ki was 1.1 nM.

Regarding `CC(C)C(=O)N1CCN(C(=O)c2cc(Cc3n[nH]c(=O)c4c3CCCC4)ccc2F)CC1` [Example 579, 4-{4-fluoro-3-[(4-isobutyrylpiperazin-1-yl)carbonyl]benzyl}-5,6,7,8-tetrahydrophthalazin-1(2H)-one], the Ki came to 1 nM.

On to `CCN1CCN(C(=O)c2cc(Cc3n[nH]c(=O)c4c3CCCC4)ccc2F)CC1` [Example 580, 4-{3-[(4-ethylpiperazin-1-yl)carbonyl]-4-fluorobenzyl}-5,6,7,8-tetrahydrophthalazin-1(2H)-one], for which the Ki is 1.8 nM.

As to `N[C@H]1CC(=O)N(c2cc(Cc3n[nH]c(=O)c4c3CCCC4)ccc2F)C1=O` [Example 583, (3S)-3-amino-1-{2-fluoro-5-[(4-oxo-3,4,5,6,7,8-hexahydrophthalazin-1-yl)methyl]phenyl}pyrrolidine-2,5-dione], the Ki stood at 2.3 nM.

With `CN1CCN(C(=O)Nc2cc(Cc3n[nH]c(=O)c4c3CCCC4)ccc2F)CC1` [Example 584, N-{2-fluoro-5-[(4-oxo-3,4,5,6,7,8-hexahydrophthalazin-1-yl)methyl]phenyl}-4-methylpiperazine-1-carboxamide], the Ki is 68 nM.

Regarding `CCC(=O)N1CCN(C(=O)c2cc(Cc3n[nH]c(=O)c4c3CCCC4)ccc2F)CC1` [Example 585, 4-{4-fluoro-3-[(4-propionylpiperazin-1-yl)carbonyl]benzyl}-5,6,7,8-tetrahydrophthalazin-1(2H)-one], the Ki came to 1.3 nM.

As to `CCS(=O)(=O)N1CCN(C(=O)c2cc(Cc3n[nH]c(=O)c4c3CCCC4)ccc2F)CC1` [Example 586, 4-(3-{[4-(ethylsulfonyl)piperazin-1-yl]carbonyl}-4-fluorobenzyl)-5,6,7,8-tetrahydrophthalazin-1(2H)-one], the Ki came to 1.1 nM.

Regarding `CC(C)(C)C(=O)N1CCN(C(=O)c2cc(Cc3n[nH]c(=O)c4c3CCCC4)ccc2F)CC1` [Example 587, 4-(3-[4-(2,2-dimethylpropanoyl)piperazin-1-yl]carbonyl-4-fluorobenzyl)-5,6,7,8-tetrahydrophthalazin-1(2H)-one], the Ki stood at 1 nM.

As to `O=C(COc1ccccc1)N1CCN(C(=O)c2cc(Cc3n[nH]c(=O)c4c3CCCC4)ccc2F)CC1` [Example 590, 4-(4-fluoro-3-{[4-(phenoxyacetyl)piperazin-1-yl]carbonyl}benzyl)-5,6,7,8-tetrahydrophthalazin-1(2H)-one], the Ki was determined as 1.9 nM.

For the molecule `O=C(COc1ccccc1)N1CCN(C(=O)c2cc(Cc3n[nH]c(=O)c4c3NCCC4)ccc2F)CC1` [Example 591, 8-(4-fluoro-3-{[4-(phenoxyacetyl)piperazin-1-yl]carbonyl}benzyl)-2,3,4,6-tetrahydropyrido[2,3-d]pyridazin-5(1H)-one], the Ki was 0.5 nM.

For `CC(C)(C)C(=O)N1CCN(C(=O)c2cc(Cc3n[nH]c(=O)c4c3NCCC4)ccc2F)CC1` [Example 593, 8-(3-{[4-(2,2-dimethylpropanoyl)piperazin-1-yl]carbonyl}-4-fluorobenzyl)-2,3,4,6-tetrahydropyrido[2,3-d]pyridazin-5(1H)-one], the Ki stood at 1.3 nM.

Regarding `CCS(=O)(=O)N1CCN(C(=O)c2cc(Cc3n[nH]c(=O)c4c3NCCC4)ccc2F)CC1` [Example 594], the Ki came to 0.7 nM.

As for `CC(=O)N(C)C1CCN(C(=O)c2cc(Cc3n[nH]c(=O)c4c3NCCC4)ccc2F)C1` (centres unmarked) [Example 595, N-(1-{2-fluoro-5-[(5-oxo-1,2,3,4,5,6-hexahydropyrido[2,3-d]pyridazin-8-yl)methyl]benzoyl}pyrrolidine-3-yl)-N-methylacetamide], the Ki was found to be 6 nM.

As usually defined, the Ki is the dissociation constant of the complex between target and ligand, obtained from inhibition or displacement.
